In US20160160232A1, “ALS INHIBITOR HERBICIDE TOLERANT MUTANT PLANTS” (priority 2013, published 2016):

Assays:
[1] = test system: oilseed rape homozygous for HETO133 and HETO134; assay: Further field trial, phytotoxicity (Table 3); assay type: in vivo, Brassica napus; conditions: g ai/ha: IMAZAMOX 40, BISPYRIBAC-SODIUM 50, PROPOXYCARBAZONE-SODIUM 70, MESOSULFURON-METHYL 60, PYROXSULAM 12.5 with CLOQUINTOCET-MEXYL 37.5, each with RAPESEED OIL METHYLATED 366.5
Description: (§1) In a further field trial, seeds of spring oilseed rape comprising HETO133 and HETO134, and wild type (WT) seeds were sown in a field. For the untreated plants, biomass was determined at 9, 16 and 24 days after application (DAA) as compared to a control variety. For the treated plants, phytotoxicity was assessed at 9, 16 and 24 days after application (DAA) according to a scale from 0 to 100%. For both wild-type and HETO133-HETO134, no thinning was observed.

[2] = test system: wild-type (WT) oilseed rape; assay: Further field trial, phytotoxicity (Table 3); assay type: in vivo, Brassica napus; conditions: g ai/ha: IMAZAMOX 40, BISPYRIBAC-SODIUM 50, PROPOXYCARBAZONE-SODIUM 70, MESOSULFURON-METHYL 60, PYROXSULAM 12.5 with CLOQUINTOCET-MEXYL 37.5, each with RAPESEED OIL METHYLATED 366.5
Description: as §1

[3] = test system: oilseed rape homozygous for HETO133 and HETO134; assay: Field trial, visible phytotoxicity (Table 2); assay type: in vivo, Brassica napus; conditions: applied at BBCH 14, 200 L/ha water, g ai/ha: Foramsulfuron 25, TCM 15, Iodosulfuron 7, Mesosulfuron 60, Amidosulfuron 30, Ethoxysulfuron 60, Imazamox 40, Metosulam 30, Bispyribac 50, Nicosulfuron 60, Metsulfuron 8, Propoxycarbazone 70, Pyroxsulam 50, Tribenuron 30, Rimsulfuron 12.5, Flucarbazone 40, Thifensulfuron 7.5
Text: (§2) Seeds of spring oilseed rape homozygous for HETO133 and HETO134 were sown in a field according to typical practical agricultural methods. The registered spring oilseed rape variety ABILITY, the wild-type segregant (WTS), and plants comprising a P197S mutation on ALS I and a W574L mutation on ALS III (P197S-W574L) served as a comparison. All plants were cultivated up to BBCH stage 14 (four true leaves of the oilseed rape plants). Afterwards, the herbicides mentioned in table 2 have been applied to the oilseed rape plants by using specific spray equipment for small plot applications. The water amount used was 200 L/ha.

[4] = test system: wild-type segregant (WTS) oilseed rape; assay: Field trial, visible phytotoxicity (Table 2); assay type: in vivo, Brassica napus; conditions: applied at BBCH 14, 200 L/ha water, g ai/ha: Foramsulfuron 25, TCM 15, Iodosulfuron 7, Mesosulfuron 60, Amidosulfuron 30, Ethoxysulfuron 60, Imazamox 40, Metosulam 30, Bispyribac 50, Nicosulfuron 60, Metsulfuron 8, Propoxycarbazone 70, Pyroxsulam 50, Tribenuron 30, Rimsulfuron 12.5, Flucarbazone 40, Thifensulfuron 7.5
Text: as §2

[5] = test system: spring oilseed rape variety ABILITY; assay: Field trial, visible phytotoxicity (Table 2); assay type: in vivo, Brassica napus; conditions: applied at BBCH 14, 200 L/ha water, g ai/ha: Foramsulfuron 25, TCM 15, Iodosulfuron 7, Mesosulfuron 60, Amidosulfuron 30, Ethoxysulfuron 60, Imazamox 40, Metosulam 30, Bispyribac 50, Nicosulfuron 60, Metsulfuron 8, Propoxycarbazone 70, Pyroxsulam 50, Tribenuron 30, Rimsulfuron 12.5, Flucarbazone 40, Thifensulfuron 7.5
Text: as §2

[6] = test system: oilseed rape comprising a P197S mutation on ALS I and a W574L mutation on ALS III (P197S-W574L); assay: Field trial, visible phytotoxicity (Table 2); assay type: in vivo, Brassica napus; conditions: applied at BBCH 14, 200 L/ha water, g ai/ha: Foramsulfuron 25, TCM 15, Iodosulfuron 7, Mesosulfuron 60, Amidosulfuron 30, Ethoxysulfuron 60, Imazamox 40, Metosulam 30, Bispyribac 50, Nicosulfuron 60, Metsulfuron 8, Propoxycarbazone 70, Pyroxsulam 50, Tribenuron 30, Rimsulfuron 12.5, Flucarbazone 40, Thifensulfuron 7.5
Text: as §2

[7] = test system: Hypocotyl derived callus (WT tissues); assay: Callus selection on Foramsulfuron containing medium; assay type: cell-based, Brassica napus
Description: Five day old seedlings were used for the preparation of hypocotyl segments 7-10 mm in length. Hypocotyl segments were transferred to 14 cm Petri plates containing 75 ml of M-338 [H76] callus induction medium (25 explants/plate). M-338 [H76] medium is MS salts and vitamins (Murashige and Skoog, 1962), 20 g/l sucrose, 0.5 g/l MES, 0.5 g/l adenine sulphate, 5 mg/l silver nitrate, 0.5 mg/l 2,4-D, 0.2 mg/l kinetin and solidified with 5.5 g/l agarose (pH 5.7). Dishes were sealed and cultured at 24° C. with standard light conditions (16 h/day). After 3 weeks, calli developing at the ends of the explants were transferred to fresh M-338 [H76] plates (25 calli/plate). Calli were subcultured to fresh medium every 3 weeks (larger calli cut into two pieces).
Hypocotyl derived callus (9 weeks old) was used for the selection of herbicide resistant mutants. Small pieces of callus were plated on M-338 [H76] medium containing 25 nM of the ALS inhibitor Foramsulfuron (CAS RN 173159-57-4). […] Dishes were cultured at 24° C. with standard light conditions (16 h/day). After 3 weeks, the calli were divided into 2 pieces each and replated on M-338 [H76] medium containing 50 nM Foramsulfuron. […]

SMILES	Percentage phytotoxicity HETO133-HETO134 9 DAA [1] [%]	Percentage phytotoxicity HETO133-HETO134 16 DAA [1] [%]	Percentage phytotoxicity HETO133-HETO134 24 DAA [1] [%]	Percentage phytotoxicity WT 9 DAA [2] [%]	Percentage phytotoxicity WT 16 DAA [2] [%]	Percentage phytotoxicity WT 24 DAA [2] [%]	Percentage phytotoxicity HETO133-HETO134 7 DAA [3] [%]	Percentage phytotoxicity HETO133-HETO134 14 DAA [3] [%]	Percentage phytotoxicity HETO133-HETO134 23 DAA [3] [%]	Percentage phytotoxicity WTS 7 DAA [4] [%]	Percentage phytotoxicity WTS 14 DAA [4] [%]	Percentage phytotoxicity WTS 23 DAA [4] [%]	Percentage phytotoxicity ABILITY 7 DAA [5] [%]	Percentage phytotoxicity standard 14 DAA [5] [%]	Percentage phytotoxicity standard 23 DAA [5] [%]	Percentage phytotoxicity P197S-W574L 7 DAA [6] [%]	Percentage phytotoxicity P197S-W574L 14 DAA [6] [%]	Percentage phytotoxicity P197S-W574L 23 DAA [6] [%]	effect on callus growth ([7]; 25 nM Foramsulfuron in M-338 [H76] medium, starting concentration)	effect on WT tissues ([7]; 250 nM Foramsulfuron in M-338 [H76] medium)
COc1cc(OC)nc(Oc2cccc(Oc3nc(OC)cc(OC)n3)c2C(=O)O)n1 [Bispyribac, bispyribac-sodium]	56.7	88.3	92.7	76.7	98.3	100	–	–	–	–	–	–	–	–	–	–	–	–	–	–
COc1nn(C(=O)[N-]S(=O)(=O)c2ccccc2OC(F)(F)F)c(=O)n1C.[Na+] [Flucarbazone, flucarbazone-sodium]	–	–	–	–	–	–	0	0	0	85	98	99	85	98	99	10	6	10	–	–
COc1cc(OC)nc(NC(=O)NS(=O)(=O)c2cc(NC=O)ccc2C(=O)N(C)C)n1 [Foramsulfuron, foramsulfuron]	–	–	–	–	–	–	–	–	–	–	–	–	–	–	–	–	–	–	partially inhibitory to callus growth but not lethal	clearly inhibitory to WT tissues
COCc1cnc(C2=NC(C)(C(C)C)C(=O)N2)c(C(=O)O)c1 (centres unmarked) [Imazamox, imazamox]	6.7	10	0	73.3	98	99	–	–	–	–	–	–	–	–	–	–	–	–	–	–
COC(=O)c1ccc(CNS(C)(=O)=O)cc1S(=O)(=O)NC(=O)Nc1nc(OC)cc(OC)n1 [Mesosulfuron, mesosulfuron-methyl]	11.7	13.3	3.3	76.7	98	96	33	38	35	85	98	99	85	98	99	40	40	45	–	–
COC(=O)c1ccccc1S(=O)(=O)NC(=O)Nc1nc(C)nc(OC)n1 [Metsulfuron, metsulfuron-methyl]	–	–	–	–	–	–	50	63	78	86	98	99	86	98	99	45	50	62	–	–
CCCOc1nn(C(=O)[N-]S(=O)(=O)c2ccccc2C(=O)OC)c(=O)n1C.[Na+] [Propoxycarbazone, propoxycarbazone-sodium]	53.3	82.7	76.7	76.7	97	97.7	57	72	83	86	98	99	86	98	99	47	52	47	–	–
COc1cc(OC)n2nc(NS(=O)(=O)c3c(C(F)(F)F)ccnc3OC)nc2n1 [Pyroxsulam, pyroxsulam]	13.3	17	15	76.7	98	98	0	0	5	83	98	99	83	98	99	15	16	18	–	–
COC(=O)c1csc(C)c1S(=O)(=O)NC(=O)n1nc(OC)n(C)c1=O [TCM, thiencarbazone-methyl]	–	–	–	–	–	–	0	0	3	85	98	99	85	98	99	16	13	17	–	–
